# Measured values reported in PubChem BioAssay (NCI).
#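 The concentration for 50% growth inhibition is given as GI50. TGI marks complete inhibition of growth.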
# Key:
# Assay in all cases: NCI-60 cell line screen, 384-well format
# A498 renal = test system: A498 renal
# IGROV1 ovarian = test system: IGROV1 ovarian
# SF-295 CNS = test system: SF-295 CNS
# HL-60(TB) leukemia = test system: HL-60(TB) leukemia
# HCC-2998 colon = test system: HCC-2998 colon
# UACC-257 melanoma = test system: UACC-257 melanoma
# ACHN renal = test system: ACHN renal
# SK-MEL-28 melanoma = test system: SK-MEL-28 melanoma
# NCI-H322M lung = test system: NCI-H322M lung
# KM12 colon = test system: KM12 colon
# UO-31 renal = test system: UO-31 renal
# HT29 colon = test system: HT29 colon
# MCF7 breast = test system: MCF7 breast
# NCI-H226 lung = test system: NCI-H226 lung
# MALME-3M melanoma = test system: MALME-3M melanoma
# OVCAR-5 ovarian = test system: OVCAR-5 ovarian
# CCRF-CEM leukemia = test system: CCRF-CEM leukemia
# HOP-62 NSCLC = test system: HOP-62 NSCLC
# COLO 205 colon = test system: COLO 205 colon
# HS 578T breast = test system: HS 578T breast
# SNB-75 CNS = test system: SNB-75 CNS
# SNB-19 CNS = test system: SNB-19 CNS
# OVCAR-8 ovarian = test system: OVCAR-8 ovarian
# SN12C renal = test system: SN12C renal
# SK-OV-3 ovarian = test system: SK-OV-3 ovarian
# MDA-MB-468 breast = test system: MDA-MB-468 breast
# MDA-MB-435 melanoma = test system: MDA-MB-435 melanoma
# EKVX NSCLC = test system: EKVX NSCLC
# MDA-MB-231 breast = test system: MDA-MB-231 breast
# U251 glioblastoma = test system: U251 glioblastoma
# M14 melanoma = test system: M14 melanoma
# T-47D breast = test system: T-47D breast
# HOP-92 NSCLC = test system: HOP-92 NSCLC
# PC-3 prostate = test system: PC-3 prostate
# A549 NSCLC = test system: A549 NSCLC
# NCI/ADR-RES ovarian = test system: NCI/ADR-RES ovarian
# TK-10 renal = test system: TK-10 renal
# OVCAR-4 ovarian = test system: OVCAR-4 ovarian
# BT-549 breast = test system: BT-549 breast
# RPMI-8226 leukemia = test system: RPMI-8226 leukemia
# MOLT-4 leukemia = test system: MOLT-4 leukemia
# HCT-116 colon = test system: HCT-116 colon
# SF-539 CNS = test system: SF-539 CNS
# SW-620 colon = test system: SW-620 colon
# SK-MEL-5 melanoma = test system: SK-MEL-5 melanoma
# OVCAR-3 ovarian = test system: OVCAR-3 ovarian
# CAKI-1 renal = test system: CAKI-1 renal
# SR leukemia = test system: SR leukemia
# NCI-H460 NSCLC = test system: NCI-H460 NSCLC
# NCI-H23 lung = test system: NCI-H23 lung
# 786-0 renal = test system: 786-0 renal
# RXF 393 renal = test system: RXF 393 renal
# SF-268 CNS = test system: SF-268 CNS
# K-562 leukemia = test system: K-562 leukemia
# LOX IMVI melanoma = test system: LOX IMVI melanoma
# NCI-H522 lung = test system: NCI-H522 lung
# UACC-62 melanoma = test system: UACC-62 melanoma
# DU-145 prostate = test system: DU-145 prostate
structure (smiles),measurement,setting,value
CCOC(=O)C1=CCCC[C@H]1S(=O)(=O)Nc1ccc(F)cc1Cl,GI50,A498 renal,19.5 µM
same,TGI,A498 renal,49.6 µM
same,GI50,IGROV1 ovarian,29.8 µM
same,TGI,IGROV1 ovarian,> 100 µM
same,GI50,SF-295 CNS,19.2 µM
same,TGI,SF-295 CNS,52.5 µM
same,GI50,HL-60(TB) leukemia,10.6 µM
same,TGI,HL-60(TB) leukemia,22.7 µM
same,GI50,HCC-2998 colon,18.4 µM
same,TGI,HCC-2998 colon,37.3 µM
same,GI50,UACC-257 melanoma,17.5 µM
same,TGI,UACC-257 melanoma,84.9 µM
same,GI50,ACHN renal,27.9 µM
same,TGI,ACHN renal,85.2 µM
same,GI50,SK-MEL-28 melanoma,> 100 µM
same,TGI,SK-MEL-28 melanoma,> 100 µM
same,GI50,NCI-H322M lung,20.1 µM
same,TGI,NCI-H322M lung,51.1 µM
same,GI50,KM12 colon,21 µM
same,TGI,KM12 colon,48.4 µM
same,GI50,UO-31 renal,19 µM
same,TGI,UO-31 renal,47.2 µM
same,GI50,HT29 colon,29.8 µM
same,TGI,HT29 colon,> 100 µM
same,GI50,MCF7 breast,14.1 µM
same,TGI,MCF7 breast,33 µM
same,GI50,NCI-H226 lung,18.8 µM
same,TGI,NCI-H226 lung,52.3 µM
same,GI50,MALME-3M melanoma,21.7 µM
same,TGI,MALME-3M melanoma,57.6 µM
same,GI50,OVCAR-5 ovarian,26.7 µM
same,TGI,OVCAR-5 ovarian,70.6 µM
same,GI50,CCRF-CEM leukemia,14.8 µM
same,TGI,CCRF-CEM leukemia,28.9 µM
same,GI50,HOP-62 NSCLC,19.4 µM
same,TGI,HOP-62 NSCLC,73.7 µM
same,GI50,COLO 205 colon,28.4 µM
same,TGI,COLO 205 colon,62.8 µM
same,GI50,HS 578T breast,16.1 µM
same,TGI,HS 578T breast,42.2 µM
same,GI50,SNB-75 CNS,20.4 µM
same,TGI,SNB-75 CNS,55.3 µM
same,GI50,SNB-19 CNS,23.6 µM
same,TGI,SNB-19 CNS,79.9 µM
same,GI50,OVCAR-8 ovarian,15.6 µM
same,TGI,OVCAR-8 ovarian,38.6 µM
same,GI50,SN12C renal,18.4 µM
same,TGI,SN12C renal,48.4 µM
same,GI50,SK-OV-3 ovarian,22.3 µM
same,TGI,SK-OV-3 ovarian,65.5 µM
same,GI50,MDA-MB-468 breast,12.4 µM
same,TGI,MDA-MB-468 breast,27.2 µM
same,GI50,MDA-MB-435 melanoma,31 µM
same,TGI,MDA-MB-435 melanoma,> 100 µM
same,GI50,EKVX NSCLC,19.4 µM
same,TGI,EKVX NSCLC,44.3 µM
same,GI50,MDA-MB-231 breast,27.3 µM
same,TGI,MDA-MB-231 breast,> 100 µM
same,GI50,U251 glioblastoma,18.1 µM
same,TGI,U251 glioblastoma,41 µM
same,GI50,M14 melanoma,21.9 µM
same,TGI,M14 melanoma,68 µM
same,GI50,T-47D breast,11.4 µM
same,TGI,T-47D breast,24.1 µM
same,GI50,HOP-92 NSCLC,16.9 µM
same,TGI,HOP-92 NSCLC,39.8 µM
same,GI50,PC-3 prostate,18.8 µM
same,TGI,PC-3 prostate,41 µM
same,GI50,A549 NSCLC,32.1 µM
same,TGI,A549 NSCLC,> 100 µM
same,GI50,NCI/ADR-RES ovarian,18.6 µM
same,TGI,NCI/ADR-RES ovarian,39.4 µM
same,GI50,TK-10 renal,22 µM
same,TGI,TK-10 renal,60.5 µM
CN[C@H]1CN(c2ccc3c(=O)c(C(=O)O)cn(-c4nccs4)c3n2)C[C@@H]1OC,GI50,OVCAR-4 ovarian,4.36 µM
same,TGI,OVCAR-4 ovarian,> 100 µM
same,GI50,A498 renal,0.781 µM
same,TGI,A498 renal,3.83 µM
same,GI50,IGROV1 ovarian,1.8 µM
same,TGI,IGROV1 ovarian,> 100 µM
same,GI50,SF-295 CNS,0.426 µM
same,TGI,SF-295 CNS,2.63 µM
same,GI50,HL-60(TB) leukemia,0.0776 µM
same,TGI,HL-60(TB) leukemia,0.238 µM
same,GI50,BT-549 breast,0.585 µM
same,TGI,BT-549 breast,6.87 µM
same,GI50,RPMI-8226 leukemia,0.0605 µM
same,TGI,RPMI-8226 leukemia,1.18 µM
same,GI50,MOLT-4 leukemia,0.0305 µM
same,TGI,MOLT-4 leukemia,0.12 µM
same,GI50,HCT-116 colon,0.371 µM
same,TGI,HCT-116 colon,3.76 µM
same,GI50,ACHN renal,0.458 µM
same,TGI,ACHN renal,2.44 µM
same,GI50,SK-MEL-28 melanoma,1.13 µM
same,TGI,SK-MEL-28 melanoma,2.93 µM
same,GI50,NCI-H322M lung,3.52 µM
same,TGI,NCI-H322M lung,39.7 µM
same,GI50,SF-539 CNS,0.85 µM
same,TGI,SF-539 CNS,> 100 µM
same,GI50,KM12 colon,0.654 µM
same,TGI,KM12 colon,10.7 µM
same,GI50,UO-31 renal,1.47 µM
same,TGI,UO-31 renal,8.66 µM
same,GI50,SW-620 colon,0.823 µM
same,TGI,SW-620 colon,7.71 µM
same,GI50,HT29 colon,1.28 µM
same,TGI,HT29 colon,3.88 µM
same,GI50,MCF7 breast,0.602 µM
same,TGI,MCF7 breast,> 100 µM
same,GI50,NCI-H226 lung,1.23 µM
same,TGI,NCI-H226 lung,3.6 µM
same,GI50,SK-MEL-5 melanoma,1.15 µM
same,TGI,SK-MEL-5 melanoma,2.54 µM
same,GI50,MALME-3M melanoma,1.06 µM
same,TGI,MALME-3M melanoma,2.7 µM
same,GI50,OVCAR-3 ovarian,1.32 µM
same,TGI,OVCAR-3 ovarian,6.19 µM
same,GI50,CAKI-1 renal,0.752 µM
same,TGI,CAKI-1 renal,6.44 µM
same,GI50,SR leukemia,0.0189 µM
same,TGI,SR leukemia,0.0443 µM
same,GI50,CCRF-CEM leukemia,0.0586 µM
same,TGI,CCRF-CEM leukemia,0.276 µM
same,GI50,HOP-62 NSCLC,0.479 µM
same,TGI,HOP-62 NSCLC,2.2 µM
same,GI50,COLO 205 colon,0.394 µM
same,TGI,COLO 205 colon,> 100 µM
same,GI50,HS 578T breast,0.64 µM
same,TGI,HS 578T breast,5.24 µM
same,GI50,SNB-75 CNS,0.855 µM
same,TGI,SNB-75 CNS,2.47 µM
same,GI50,NCI-H460 NSCLC,0.206 µM
same,TGI,NCI-H460 NSCLC,1.35 µM
same,GI50,NCI-H23 lung,0.551 µM
same,TGI,NCI-H23 lung,2.57 µM
same,GI50,SNB-19 CNS,0.559 µM
same,TGI,SNB-19 CNS,2.93 µM
same,GI50,OVCAR-8 ovarian,0.637 µM
same,TGI,OVCAR-8 ovarian,> 100 µM
same,GI50,786-0 renal,0.434 µM
same,TGI,786-0 renal,4.59 µM
same,GI50,SN12C renal,0.403 µM
same,TGI,SN12C renal,2.77 µM
same,GI50,RXF 393 renal,0.86 µM
same,TGI,RXF 393 renal,5.37 µM
same,GI50,SK-OV-3 ovarian,1.8 µM
same,TGI,SK-OV-3 ovarian,26.3 µM
same,GI50,MDA-MB-468 breast,0.787 µM
same,TGI,MDA-MB-468 breast,2.57 µM
same,GI50,SF-268 CNS,0.421 µM
same,TGI,SF-268 CNS,6.03 µM
same,GI50,MDA-MB-435 melanoma,3.5 µM
same,TGI,MDA-MB-435 melanoma,> 100 µM
same,GI50,MDA-MB-231 breast,1.41 µM
same,TGI,MDA-MB-231 breast,11.4 µM
same,GI50,U251 glioblastoma,0.675 µM
same,TGI,U251 glioblastoma,2.56 µM
same,GI50,M14 melanoma,0.674 µM
same,TGI,M14 melanoma,3.02 µM
same,GI50,K-562 leukemia,0.616 µM
same,TGI,K-562 leukemia,6.05 µM
same,GI50,LOX IMVI melanoma,0.776 µM
same,TGI,LOX IMVI melanoma,2.12 µM
same,GI50,NCI-H522 lung,1.21 µM
same,TGI,NCI-H522 lung,5.61 µM
same,GI50,HOP-92 NSCLC,1.61 µM
same,TGI,HOP-92 NSCLC,8.56 µM
same,GI50,PC-3 prostate,2.41 µM
same,TGI,PC-3 prostate,15.4 µM
same,GI50,A549 NSCLC,0.686 µM
same,TGI,A549 NSCLC,> 100 µM
same,GI50,UACC-62 melanoma,0.427 µM
same,TGI,UACC-62 melanoma,1.89 µM
same,GI50,TK-10 renal,1.79 µM
same,TGI,TK-10 renal,12.1 µM
same,GI50,DU-145 prostate,1.49 µM
same,TGI,DU-145 prostate,7.07 µM
